The record followed here is PubChem BioAssay (NCI).

Structures are written as SMILES.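 Cultured in 96-well plates, cells were exposed to test compound for 48 hours across five concentrations. The concentration for full growth arrest is given as TGI.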

Test systems include U251 CNS; MDA-MB-435; SNB-19 CNS; SK-MEL-5 melanoma; HS 578T breast; IGROV1 ovarian; SW-620 colon; MDA-MB-231 breast; BT-549 breast; HCC-2998 colon; NCI-H460 lung; NCI-H23 lung; SN12C renal; M14 melanoma; HCT-116 colon; OVCAR-4 ovarian; NCI-H522 lung; OVCAR-3 ovarian; UACC-257 melanoma.
Holding throughout (assay): NCI-60 cell line screen, 48 h

With `CCOc1cc2c(cc1O)C(=O)C[C@@H]1[C@@H]2CC[C@]2(C)[C@@H](O)CC[C@@H]12`, the TGI with U251 CNS is over 51.9 µM; with MDA-MB-435, 0.222 µM; with SNB-19 CNS, over 55.2 µM; with SK-MEL-5 melanoma it was 7.11 µM; in the experiment on HS 578T breast it was over 12.4 µM; with IGROV1 ovarian, over 30.3 µM. In addition, the TGI with SW-620 colon is over 100 µM; in the experiment on MDA-MB-231 breast, 61.8 µM; in the experiment on BT-549 breast it was 28.9 µM; in the experiment with HCC-2998 colon, 4.56 µM; with NCI-H460 lung, 12.4 µM; in the experiment on NCI-H23 lung, 43.7 µM. Besides, the TGI was over 100 µM in the experiment on SN12C renal; over 38.9 µM in the experiment on M14 melanoma; 38 µM with HCT-116 colon; over 100 µM in the experiment on OVCAR-4 ovarian; 3.2 µM in the experiment with NCI-H522 lung; 1.7 µM in the experiment on OVCAR-3 ovarian. In addition, in the experiment with UACC-257 melanoma, the TGI was over 100 µM.

For `CCCCCCCCCCCCCCCC(=O)OC1C(O)C(O)C(O)C(O)C12CO2` (stereo unspecified), the TGI in the experiment with U251 CNS is 39.2 µM; in the experiment on MDA-MB-435, over 100 µM; in the experiment on SNB-19 CNS, over 100 µM; in the experiment with SK-MEL-5 melanoma it was over 100 µM; in the experiment with HS 578T breast it was over 100 µM; in the experiment with IGROV1 ovarian, over 100 µM. Further, the TGI was 40 µM with SW-620 colon; over 100 µM in the experiment with MDA-MB-231 breast; over 100 µM in the experiment with BT-549 breast; over 100 µM in the experiment on HCC-2998 colon; over 100 µM in the experiment on NCI-H460 lung; over 100 µM in the experiment with NCI-H23 lung. For the same molecule, the TGI in the experiment with SN12C renal was 34.5 µM; with M14 melanoma it was over 100 µM; in the experiment with HCT-116 colon, over 100 µM; in the experiment on OVCAR-4 ovarian, over 100 µM; in the experiment on NCI-H522 lung it was over 100 µM; with OVCAR-3 ovarian it was 73 µM. In the experiment with UACC-257 melanoma, this molecule displayed a TGI of over 100 µM.

As for `OC(Cc1cc(CC(O)(C(F)(F)F)C(F)(F)F)nc(CC(O)(C(F)(F)F)C(F)(F)F)c1)(C(F)(F)F)C(F)(F)F`, the TGI came to 5.32 µM with U251 CNS; 7.94 µM in the experiment on MDA-MB-435; 8.79 µM in the experiment with SNB-19 CNS; 2.84 µM in the experiment on SK-MEL-5 melanoma; 4.63 µM with HS 578T breast; 5.58 µM in the experiment on IGROV1 ovarian. Moreover, the TGI in the experiment with SW-620 colon is over 10 µM; in the experiment with MDA-MB-231 breast, 3.68 µM; in the experiment on BT-549 breast, 6.1 µM; with HCC-2998 colon, over 10 µM; in the experiment with NCI-H460 lung it was 1.81 µM; with NCI-H23 lung it was 2.65 µM. Moreover, the TGI in the experiment on SN12C renal is 7.33 µM; in the experiment with M14 melanoma, 8.25 µM; in the experiment with HCT-116 colon, 2.76 µM; with OVCAR-4 ovarian, over 10 µM; with NCI-H522 lung, 8.98 µM; in the experiment with OVCAR-3 ovarian, 1.96 µM. Also, in the experiment on UACC-257 melanoma, the TGI is 5.26 µM.

Take `CC(=O)Oc1cc(-c2oc3cc(OC(C)=O)c(C4OC(CO)C(O)C(O)C4O)c(OC(C)=O)c3c(=O)c2O)c(OC(C)=O)cc1O` (stereo unspecified): the TGI in the experiment on U251 CNS, in the experiment with MDA-MB-435, with SK-MEL-5 melanoma, in the experiment on HS 578T breast, in the experiment with IGROV1 ovarian and with SW-620 colon was over 100 µM throughout. The TGI in the experiment with MDA-MB-231 breast, in the experiment with BT-549 breast, with HCC-2998 colon, in the experiment with NCI-H460 lung, with NCI-H23 lung and in the experiment with SN12C renal was over 100 µM throughout. The TGI with M14 melanoma, in the experiment with HCT-116 colon, with OVCAR-4 ovarian, in the experiment with NCI-H522 lung, with OVCAR-3 ovarian and in the experiment on UACC-257 melanoma was over 100 µM throughout.

On to `C=C(C)COc1cc(NC(=S)OC(C)C)ccc1Cl`, for which the TGI turned out to be 30.8 µM with U251 CNS; 28.6 µM in the experiment with MDA-MB-435; 33.4 µM with SNB-19 CNS; 38.4 µM with SK-MEL-5 melanoma; 49.9 µM in the experiment with HS 578T breast; 31 µM in the experiment with IGROV1 ovarian. Moreover, the TGI with SW-620 colon amounted to 27.6 µM; in the experiment on MDA-MB-231 breast, 29.5 µM; in the experiment on BT-549 breast it was 24.3 µM; with HCC-2998 colon, 29.5 µM; with NCI-H460 lung it was 30.8 µM; in the experiment with NCI-H23 lung it was 31.3 µM. The TGI amounted to 30.6 µM in the experiment with SN12C renal; 31.7 µM in the experiment on M14 melanoma; 28.4 µM in the experiment on HCT-116 colon; 28.3 µM with OVCAR-4 ovarian; 29.1 µM in the experiment with NCI-H522 lung; 29.6 µM with OVCAR-3 ovarian. For the same molecule, in the experiment on UACC-257 melanoma, the TGI was 31.8 µM.

As to `COc1ccc(/C=C/C(=O)CCN2CCN(CCC(=O)/C=C/c3ccc(OC)cc3)CC2)cc1`, the TGI was 26.6 µM in the experiment with U251 CNS; 24.6 µM in the experiment with MDA-MB-435; over 100 µM with SNB-19 CNS; 32 µM in the experiment on SK-MEL-5 melanoma; 70 µM with HS 578T breast; 25.9 µM with IGROV1 ovarian. The TGI turned out to be 19.7 µM in the experiment with SW-620 colon; 25.2 µM in the experiment on MDA-MB-231 breast; 39.9 µM in the experiment on BT-549 breast; 24.7 µM in the experiment with HCC-2998 colon; 23.1 µM in the experiment with NCI-H460 lung; 30.1 µM with NCI-H23 lung. Further, the TGI in the experiment with SN12C renal amounted to 26 µM; in the experiment on M14 melanoma, 32.5 µM; with HCT-116 colon, 11.1 µM; with OVCAR-4 ovarian it was 50 µM; in the experiment on OVCAR-3 ovarian, 28.8 µM; in the experiment with UACC-257 melanoma, 29.1 µM.

`CCN(CC)CCSc1c(C(C)=O)c(=O)n(-c2ccccc2)c(=S)n1-c1ccccc1`: the TGI is 33.1 µM in the experiment with U251 CNS; 21.2 µM with MDA-MB-435; 55.8 µM in the experiment with SNB-19 CNS; over 45.1 µM with SK-MEL-5 melanoma; over 93.4 µM in the experiment on HS 578T breast; 27.2 µM with IGROV1 ovarian. Also, the TGI amounted to 13.4 µM with SW-620 colon; 26.9 µM with MDA-MB-231 breast; 30.8 µM with BT-549 breast; 24.5 µM with HCC-2998 colon; 50.1 µM in the experiment on NCI-H460 lung; 33.2 µM in the experiment with NCI-H23 lung. Besides, the TGI with SN12C renal is 31.6 µM; in the experiment on M14 melanoma, 4.12 µM; in the experiment on HCT-116 colon, 6.09 µM; with OVCAR-4 ovarian, 29 µM; in the experiment with NCI-H522 lung, 5.54 µM; in the experiment on OVCAR-3 ovarian it was 8.79 µM. The molecule further yielded a TGI in the experiment with UACC-257 melanoma of 23.4 µM.
